How the values were obtained:
Format in all cases: functional
[1] = system: Acinetobacter baumannii; assay: Antibacterial activity against Acinetobacter baumannii isolate 934 after 24 hrs by CLSI microdilution method
[2] = system: Acinetobacter baumannii; assay: Antibacterial activity against Acinetobacter baumannii isolate 931 after 24 hrs by CLSI microdilution method
[3] = system: Acinetobacter baumannii; assay: Antibacterial activity against Acinetobacter baumannii isolate 920 after 24 hrs by CLSI microdilution method
[4] = system: Pseudomonas aeruginosa; assay: Antibacterial activity against Pseudomonas aeruginosa isolate 319 after 24 hrs by CLSI microdilution method
[5] = system: Pseudomonas aeruginosa; assay: Antibacterial activity against Pseudomonas aeruginosa isolate 322 after 24 hrs by CLSI microdilution method
[6] = system: Pseudomonas aeruginosa; assay: Antibacterial activity against Pseudomonas aeruginosa isolate 331 after 24 hrs by CLSI microdilution method
[7] = system: Pseudomonas aeruginosa; assay: Antibacterial activity against Pseudomonas aeruginosa isolate 332 after 24 hrs by CLSI microdilution method
[8] = system: Pseudomonas aeruginosa; assay: Antibacterial activity against Pseudomonas aeruginosa isolate 334 after 24 hrs by CLSI microdilution method
[9] = system: Pseudomonas aeruginosa; assay: Antibacterial activity against Pseudomonas aeruginosa isolate 335 after 24 hrs by CLSI microdilution method
[10] = system: Pseudomonas aeruginosa; assay: Antibacterial activity against Pseudomonas aeruginosa isolate 337 after 24 hrs by CLSI microdilution method
[11] = system: Pseudomonas aeruginosa; assay: Antibacterial activity against Pseudomonas aeruginosa isolate 338 after 24 hrs by CLSI microdilution method
[12] = system: Pseudomonas aeruginosa; assay: Antibacterial activity against Pseudomonas aeruginosa isolate 339 after 24 hrs by CLSI microdilution method
[13] = system: Pseudomonas aeruginosa; assay: Antibacterial activity against Pseudomonas aeruginosa isolate 340 after 24 hrs by CLSI microdilution method
[14] = system: Pseudomonas aeruginosa; assay: Antibacterial activity against Pseudomonas aeruginosa isolate 341 after 24 hrs by CLSI microdilution method
[15] = system: Pseudomonas aeruginosa; assay: Antibacterial activity against Pseudomonas aeruginosa isolate 344 after 24 hrs by CLSI microdilution method
[16] = system: Pseudomonas aeruginosa; assay: Antibacterial activity against Pseudomonas aeruginosa isolate 345 after 24 hrs by CLSI microdilution method
[17] = system: Pseudomonas aeruginosa; assay: Antibacterial activity against Pseudomonas aeruginosa isolate 346 after 24 hrs by CLSI microdilution method
[18] = system: Pseudomonas aeruginosa; assay: Antibacterial activity against Pseudomonas aeruginosa isolate 348 after 24 hrs by CLSI microdilution method
[19] = system: Pseudomonas aeruginosa; assay: Antibacterial activity against Pseudomonas aeruginosa isolate 349 after 24 hrs by CLSI microdilution method
[20] = system: Pseudomonas aeruginosa; assay: Antibacterial activity against Pseudomonas aeruginosa isolate 352 after 24 hrs by CLSI microdilution method
[21] = system: Pseudomonas aeruginosa; assay: Antibacterial activity against Pseudomonas aeruginosa isolate 353 after 24 hrs by CLSI microdilution method
[22] = system: Pseudomonas aeruginosa; assay: Antibacterial activity against Pseudomonas aeruginosa isolate 354 after 24 hrs by CLSI microdilution method
[23] = system: Pseudomonas aeruginosa; assay: Antibacterial activity against Pseudomonas aeruginosa isolate 355 after 24 hrs by CLSI microdilution method
[24] = system: Pseudomonas aeruginosa; assay: Antibacterial activity against Pseudomonas aeruginosa isolate 357 after 24 hrs by CLSI microdilution method
[25] = system: Pseudomonas aeruginosa; assay: Antibacterial activity against Pseudomonas aeruginosa isolate 363 after 24 hrs by CLSI microdilution method
[26] = system: Pseudomonas aeruginosa; assay: Antibacterial activity against Pseudomonas aeruginosa isolate 364 after 24 hrs by CLSI microdilution method
[27] = system: Pseudomonas aeruginosa; assay: Antibacterial activity against Pseudomonas aeruginosa isolate 365 after 24 hrs by CLSI microdilution method
[28] = system: Pseudomonas aeruginosa; assay: Antibacterial activity against Pseudomonas aeruginosa isolate 366 after 24 hrs by CLSI microdilution method
[29] = system: Pseudomonas aeruginosa; assay: Antibacterial activity against Pseudomonas aeruginosa isolate 368 after 24 hrs by CLSI microdilution method
[30] = system: Pseudomonas aeruginosa; assay: Antibacterial activity against Pseudomonas aeruginosa isolate 370 after 24 hrs by CLSI microdilution method
[31] = system: Pseudomonas aeruginosa; assay: Antibacterial activity against Pseudomonas aeruginosa isolate 371 after 24 hrs by CLSI microdilution method
[32] = system: Pseudomonas aeruginosa; assay: Antibacterial activity against Pseudomonas aeruginosa isolate 372 after 24 hrs by CLSI microdilution method
[33] = system: Pseudomonas aeruginosa; assay: Antibacterial activity against Pseudomonas aeruginosa isolate 373 after 24 hrs by CLSI microdilution method
[34] = system: Pseudomonas aeruginosa; assay: Antibacterial activity against Pseudomonas aeruginosa isolate 374 after 24 hrs by CLSI microdilution method
[35] = system: Pseudomonas aeruginosa; assay: Antibacterial activity against Pseudomonas aeruginosa isolate 375 after 24 hrs by CLSI microdilution method
[36] = system: Pseudomonas aeruginosa; assay: Antibacterial activity against Pseudomonas aeruginosa isolate 379 expressing VIM2 beta-lactamase after 24 hrs by CLSI microdilution method
[37] = system: Acinetobacter baumannii; assay: Antibacterial activity against Acinetobacter baumannii isolate 882 after 24 hrs by CLSI microdilution method
[38] = system: Acinetobacter baumannii; assay: Antibacterial activity against Acinetobacter baumannii isolate 883 after 24 hrs by CLSI microdilution method
[39] = system: Acinetobacter baumannii; assay: Antibacterial activity against Acinetobacter baumannii isolate 884 after 24 hrs by CLSI microdilution method
[40] = system: Acinetobacter baumannii; assay: Antibacterial activity against Acinetobacter baumannii isolate 886 after 24 hrs by CLSI microdilution method
[41] = system: Acinetobacter baumannii; assay: Antibacterial activity against Acinetobacter baumannii isolate 887 after 24 hrs by CLSI microdilution method
[42] = system: Acinetobacter baumannii; assay: Antibacterial activity against Acinetobacter baumannii isolate 888 after 24 hrs by CLSI microdilution method
[43] = system: Pseudomonas aeruginosa; assay: Antibacterial activity against Pseudomonas aeruginosa isolate 361 after 24 hrs by CLSI microdilution method
[44] = system: Acinetobacter baumannii; assay: Antibacterial activity against Acinetobacter baumannii isolate 889 after 24 hrs by CLSI microdilution method
[45] = system: Acinetobacter baumannii; assay: Antibacterial activity against Acinetobacter baumannii isolate 897 after 24 hrs by CLSI microdilution method
[46] = system: Acinetobacter baumannii; assay: Antibacterial activity against Acinetobacter baumannii isolate 898 after 24 hrs by CLSI microdilution method
[47] = system: Acinetobacter baumannii; assay: Antibacterial activity against Acinetobacter baumannii isolate 900 after 24 hrs by CLSI microdilution method
[48] = system: Acinetobacter baumannii; assay: Antibacterial activity against Acinetobacter baumannii isolate 901 after 24 hrs by CLSI microdilution method
[49] = system: Acinetobacter baumannii; assay: Antibacterial activity against Acinetobacter baumannii isolate 902 after 24 hrs by CLSI microdilution method
[50] = system: Acinetobacter baumannii; assay: Antibacterial activity against Acinetobacter baumannii isolate 903 after 24 hrs by CLSI microdilution method
[51] = system: Acinetobacter baumannii; assay: Antibacterial activity against Acinetobacter baumannii isolate 906 after 24 hrs by CLSI microdilution method
[52] = system: Acinetobacter baumannii; assay: Antibacterial activity against Acinetobacter baumannii isolate 908 after 24 hrs by CLSI microdilution method
[53] = system: Acinetobacter baumannii; assay: Antibacterial activity against Acinetobacter baumannii isolate 911 after 24 hrs by CLSI microdilution method
[54] = system: Acinetobacter baumannii; assay: Antibacterial activity against Acinetobacter baumannii isolate 914 after 24 hrs by CLSI microdilution method
[55] = system: Acinetobacter baumannii; assay: Antibacterial activity against Acinetobacter baumannii isolate 916 after 24 hrs by CLSI microdilution method
[56] = system: Acinetobacter baumannii; assay: Antibacterial activity against Acinetobacter baumannii isolate 917 after 24 hrs by CLSI microdilution method
[57] = system: Acinetobacter baumannii; assay: Antibacterial activity against Acinetobacter baumannii isolate 922 after 24 hrs by CLSI microdilution method
[58] = system: Acinetobacter baumannii; assay: Antibacterial activity against Acinetobacter baumannii isolate 923 after 24 hrs by CLSI microdilution method
[59] = system: Acinetobacter baumannii; assay: Antibacterial activity against Acinetobacter baumannii isolate 924 after 24 hrs by CLSI microdilution method

Work on COLISTIN yielded an MIC [1] of 8 µg/mL, an MIC [2] of 4 µg/mL and an MIC [3] of 8 µg/mL. It also gave an MIC [4] of 2 µg/mL, an MIC [5] of 0.5 µg/mL and an MIC [6] of 0.5 µg/mL. It also gave an MIC [7] of 0.5 µg/mL, an MIC [8] of 1 µg/mL and an MIC [9] of 1 µg/mL. The MIC [10] was 1 µg/mL, the MIC [11] was 1 µg/mL and the MIC [12] was 1 µg/mL. It also gave an MIC [13] of 1 µg/mL, an MIC [14] of 0.5 µg/mL and an MIC [15] of 0.5 µg/mL. For the same sequence, the MIC [16] was 1 µg/mL, the MIC [17] was 2 µg/mL and the MIC [18] was 1 µg/mL. The MIC [19] was 1 µg/mL, the MIC [20] was 4 µg/mL and the MIC [21] was 0.25 µg/mL. The MIC [22] was 0.5 µg/mL, the MIC [23] was 1 µg/mL and the MIC [24] was 2 µg/mL. It also gave an MIC [25] of 0.25 µg/mL, an MIC [26] of 1 µg/mL and an MIC [27] of 2 µg/mL. For the same sequence, the MIC [28] was 0.5 µg/mL, the MIC [29] was 2 µg/mL and the MIC [30] was 2 µg/mL. The MIC [31] was 1 µg/mL, the MIC [32] was 1 µg/mL and the MIC [33] was 1 µg/mL. The MIC [34] was 1 µg/mL, the MIC [35] was 0.5 µg/mL and the MIC [36] was 1 µg/mL. For the same sequence, the MIC [37] was 1 µg/mL, the MIC [38] was 32 µg/mL and the MIC [39] was 2 µg/mL. For the same sequence, the MIC [40] was 1 µg/mL, the MIC [41] was 16 µg/mL and the MIC [42] was 4 µg/mL. It also gave an MIC [43] of 1 µg/mL, an MIC [44] of 16 µg/mL and an MIC [45] of 4 µg/mL. For the same sequence, the MIC [46] was 1 µg/mL, the MIC [47] was 2 µg/mL and the MIC [48] was 8 µg/mL. For the same sequence, the MIC [49] was 2 µg/mL, the MIC [50] was 0.25 µg/mL and the MIC [51] was 4 µg/mL. It also gave an MIC [52] of 0.5 µg/mL, an MIC [53] of 8 µg/mL and an MIC [54] of 2 µg/mL. It also gave an MIC [55] of 0.12 µg/mL, an MIC [56] of 4 µg/mL and an MIC [57] of 4 µg/mL. The MIC [58] was 4 µg/mL and the MIC [59] was 2 µg/mL.

— ChEMBL document CHEMBL1151464 (2008)
